Results as given in patent US20220105124A1, “METHODS FOR TARGETED TREATMENT AND PREDICTION OF PATIENT SURVIVAL IN CANCER” (University of Florida Research Foundation, Incorporated, priority 2019, published 2022).

System: GBM cells with high VDR expression
Test: Treating GBM cells with high VDR expression with vitamin D
Type: cell-based
Settings: GBM cells with high VDR expression treated with vitamin D
From the text: The influence of vitamin D is also examined for its role the link between VDR (vitamin D receptor) and GBM prognosis. Addition of vitamin D is used to determine if vitamin D will direct VDR to a beneficial pro-immune function of liganded VDR. Removal of vitamin D is used to determine if vitamin D deficiency leads to harmful pro-tumor unliganded VDR signal.

Vitamin D
Sox2 expression: signal from VDR, leading to lower Sox2, | VDR expression: unaffected. | abnormal signal from VDR: cells with vitamin D reduces this abnormal
